Laboratory results taken from US12103924B2, “Mitogen-activated protein kinase kinase (MEK) degradation compounds and methods of use” (Icahn School of Medicine at Mount Sinai, priority 2020, dated 2024).

Legend:
MEK1/2 [1] = assay: Rescue experiments (pretreatment) in SK-MEL-28 cells, western blot; assay type: cell-based; conditions: 2 h pretreatment with PD0325901 (1 μM), MG-132 (3 μM), MLN4924 (1 μM) or VH 032 (10 μM), then 10 h with 0.3 μM CPD-031
MEK1/2 [2] = assay: Western blot of MEK1/2 protein levels in HT-29 cells; assay type: cell-based; conditions: for MEK1 and MEK2 protein levels, time-dependent / MEK1 and MEK2 protein levels, concentration-dependent: HT-29 cells; for MEK1 and MEK2 protein levels, time-dependent: 0.1 μM or 0.3 μM, harvested at indicated time points; for MEK1 and MEK2 protein levels, concentration-dependent: serial dilution, western blot
Experimental: Compound concentrations are 0.3 μM, 1 μM and 3 μM.
(§3) The indicated protein levels were determined by Western blots.
(§4) The sample was centrifuged at 12,000 g for 10 min at 4° C. to get supernatant as cell lysate. Protein concentrations were quantified using Pierce rapid gold BCA protein assay kit.

MEK1/2 [3] = assay: Western blot of MEK1/2 protein levels in SK-MEL-28 cells; conditions: for MEK1 and MEK2 protein levels, time-dependent / MEK1 and MEK2 protein levels, concentration-dependent: SK-MEL-28 cells; for MEK1 and MEK2 protein levels, time-dependent: 0.1 μM or 0.3 μM, harvested at indicated time points; for MEK1 and MEK2 protein levels, concentration-dependent: serial dilution, western blot
Experimental: as §3, §4

MEK2 = biological target: T1, MEK2 (Homo sapiens, UniProt P36507); assay: HotSpot kinase inhibition assay, MEK2; assay type: biochemical; conditions: MEK2 150 nM, ERK K52R substrate, 33P-ATP, normalized with DMSO
T1 construct: purchased Thermo Fisher Scientific PV3615
T1 sequence (P36507 whole entry): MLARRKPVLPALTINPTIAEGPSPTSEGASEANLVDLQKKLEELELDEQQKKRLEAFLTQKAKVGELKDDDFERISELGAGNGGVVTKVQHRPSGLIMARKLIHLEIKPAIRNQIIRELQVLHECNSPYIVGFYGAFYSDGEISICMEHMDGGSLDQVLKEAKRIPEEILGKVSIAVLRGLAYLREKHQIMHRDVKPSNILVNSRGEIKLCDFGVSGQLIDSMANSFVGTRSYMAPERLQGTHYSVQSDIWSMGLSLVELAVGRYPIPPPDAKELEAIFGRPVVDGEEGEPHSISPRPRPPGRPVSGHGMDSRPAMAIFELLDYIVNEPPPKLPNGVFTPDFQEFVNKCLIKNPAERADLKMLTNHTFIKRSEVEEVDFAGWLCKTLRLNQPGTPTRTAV

MEK1 and MEK2 proteins = assay: Global proteome analysis of HT-29 cells; assay type: cell-based, human; conditions: 10 h, 0.1 μM, versus 0.1% DMSO
Experimental: […] […] P values were calculated from the data of two technical replicates. (A) DMSO compared to CPD-031 treated samples; (B) CPD-034 compared to CPD-031 treated samples; (C) DMSO compared to CPD-034 treated samples.
Proteins outside the significance lines were labeled with pink or purple color (FDR=0.05, S0=1). P values were calculated from the data of two technical replicates.
Protein Extraction and Digestion. Cells with indicated treatments were harvested and lysed in lysis buffer (6 M guanidine hydrochloride, 100 mM Tris-HCl pH 8.0). Sonication (5 s on, 5 s off, 2×30 s) was performed to shear genome DNA. Lysate were centrifugated for 30 min at 3,500 g at 4° C. and the supernatant were transferred to a clean tube, diluted 50% with Milli-Q H2O, then precipitated by addition of cold acetone (four times the original volume), and placed at −20° C. overnight. Precipitated proteins were brought down at 20,000 g at 4° C. for 10 min, and washed with cold acetone after discarding the supernatant. The pellet was air-dried at RT for 5 min and solubilized with 50 mM Tris-HCl (PH 8.0), 8 M urea. Protein concentration was determined (BCA assay) and protein was reduced with 5 mM DTT (dithiothreitol), alkylated with 15 mM IAA (iodoacetamide) in the dark, then diluted with buffer 25 mM Tris (pH 8.0) and 1 mM CaCl2 (three times the original volume). The final urea concentration is 2 M. Trypsin was added into protein solution with 1:100 ratio (trypsin:protein), and digested 12-16 h or overnight at RT.
Mass Spectrometry Analysis. Peptides were cleaned up by C18 stage tips and the concentration was determined (Peptide assay, 23275, Thermo Fisher Scientific). The clean peptides were dissolved in 0.1% formic acid and analyzed on a Q-Exactive HF-X coupled with an Easy nanoLC 1200 (Thermo Fisher Scientific, San Jose, CA). 0.5 μg of peptides were loaded onto an Acclain PepMap RSLC C18 Column (250 mm×75 μm ID, C18, 2 μm, Thermo Fisher Scientific). […] A linear gradient of 5 to 30% buffer B over 110 min was executed at a 300 nl/min flow rate followed a ramp to 100% B in 5 min, and 15-min wash with 100% B, where buffer A was aqueous 0.1% formic acid, and buffer B was 80% acetonitrile and 0.1% formic acid.
LC-MS experiments were performed in a data-dependent mode with full MS (externally calibrated to a mass accuracy of <5 ppm and a resolution of 60,000 at m/z 200) followed by high energy collision-activated dissociation-MS/MS of the top 20 most intense ions with a resolution of 15,000 at m/z 200. High energy collision-activated dissociation-MS/MS was used to dissociate peptides at a normalized collision energy of 27 eV in the presence of nitrogen bath gas atoms. Dynamic exclusion was 30.0 seconds. Each sample was subjected to two technical LC-MS replicates.
MS Data Analysis. Mass spectra processing and peptide identification were performed on the Andromeda search engine in MaxQuant software (Version 1.6.0.16) against the human UniProt database (UP000005640). All searches were conducted with a defined modification of cysteine carbamidomethylation, with methionine oxidation and protein amino-terminal acetylation as dynamic modifications. Peptides were confidently identified using a target-decoy approach with a peptide false discovery rate (FDR) of 1% and a protein FDR of 1%. A minimum peptide length of 7 amino acids was required, maximally two missed cleavages were allowed, initial mass deviation for precursor ion was up to 7 ppm, and the maximum allowed mass deviation for fragment ions was 0.5 Da. Data processing and statistical analysis were performed on Perseus (Version 1.6.0.7). Protein quantitation was performed on duplicate runs, and a two-sample t-test statistics was used to report statistically significant expression fold-changes.

pMEK and pERK [4] = assay: Western blot of MEK and ERK phosphorylation in SK-MEL-28 cells; conditions: for phosphorylation of MEK and ERK / pERK signaling, time-dependent / phosphorylation of MEK and ERK proteins, concentration-dependent: SK-MEL-28 cells; for phosphorylation of MEK and ERK / pERK signaling, time-dependent: 0.1 μM or 0.3 μM, harvested at indicated time points; for phosphorylation of MEK and ERK proteins, concentration-dependent: serial dilution, western blot
MEK1 = biological target: T2, MEK1 (Homo sapiens, UniProt Q02750); assay: HotSpot kinase inhibition assay, MEK1; assay type: biochemical; conditions: MEK1 100 nM, ERK K52R substrate, 33P-ATP, normalized with DMSO
T2 construct: purchased Thermo Fisher Scientific PV3303
T2 sequence (Q02750 whole entry): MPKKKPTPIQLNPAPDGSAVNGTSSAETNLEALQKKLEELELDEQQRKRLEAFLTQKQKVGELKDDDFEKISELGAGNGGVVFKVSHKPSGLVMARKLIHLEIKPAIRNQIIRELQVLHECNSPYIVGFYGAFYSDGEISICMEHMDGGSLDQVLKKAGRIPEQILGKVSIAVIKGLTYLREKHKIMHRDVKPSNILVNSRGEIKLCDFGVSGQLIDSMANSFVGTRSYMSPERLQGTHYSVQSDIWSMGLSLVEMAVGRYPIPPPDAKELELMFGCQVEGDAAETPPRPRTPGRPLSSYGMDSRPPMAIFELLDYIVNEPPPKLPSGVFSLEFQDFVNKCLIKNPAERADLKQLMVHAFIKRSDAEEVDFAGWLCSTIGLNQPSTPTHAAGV

HT-29 cells [5] = assay: MTT cell viability assay, HT-29; assay type: cell-based
SK-MEL-28 cells [6] = assay: MTT cell viability assay, SK-MEL-28; assay type: cell-based; conditions: MTT 3 d, clonogenic assay 14 d at 10, 30 and 100 nM
Experimental: Clonogenic assay was performed in HT-29 (C) and SK-MEL-28 (D) cells for 14 d treatment with DMSO or indicated compounds with 10, 30 and 100 nM, in duplicate, respectively. Cells were then stained by crystal violet.
(§1) Cells (2000 cells per well) were seeded into 96-well microplates. After 20 h, cells were treated with 0.1% DMSO or indicated serial dilutions of compounds in duplicate or triplicate for 3 days. Cell viability was tested using MTT (M6494, Thermo Fisher Scientific) or WST-8 reagent (CK04, Dojindo). Briefly, 12 mM MTT was prepared in PBS or WST-8 reagent was warmed up to room temperature. 20 μL MTT or CCK-8 was then added to each well and the plates were kept in incubator at 37° C. for 3 h in the dark. For the WST-8 assay, signal was obtained after the incubation. For the MTT assay, cell medium was replaced with 200 μL of DMSO after the incubation, and then cell plates were kept at 37° C. for another 30 min. Absorbance signals for MTT and WST-8 were read at 540 nm and 450 nm respectively, with 690 nm as reference performed with Infinite F PLEX plate reader (TECAN, Morrisville, NC, USA). GI50 values were analyzed using GraphPad Prism 8 from the data of at least three independent experiments.
HT-29 or SK-MEL-28 cells (300 cells per well) were seeded in 12-well plates. After 20 h, cells were treated with DMSO or indicated concentrations of compounds in duplicate for two weeks. […]

MEK1/2 [7] = assay: Rescue experiments (pretreatment) in HT-29 cells, western blot; assay type: cell-based; conditions: 2 h pretreatment with PD0325901 (1 μM), MG-132 (3 μM), MLN4924 (1 μM) or VH 032 (10 μM), then 10 h with 0.3 μM CPD-031
Experimental: The cells were incubated for another 8 h.
as §4

pMEK and pERK [8] = assay: Western blot of MEK and ERK phosphorylation in HT-29 cells; assay type: cell-based; conditions: for phosphorylation of MEK and ERK / pERK signaling, time-dependent / phosphorylation of MEK and ERK proteins, concentration-dependent: HT-29 cells; for phosphorylation of MEK and ERK / pERK signaling, time-dependent: 0.1 μM or 0.3 μM, harvested at indicated time points; for phosphorylation of MEK and ERK proteins, concentration-dependent: serial dilution, western blot
HT-29 cells [9] = assay: WST-8 cell viability assay, HT-29; assay type: cell-based
Experimental: (§2) Cells were fixed and stained by crystal violet.
as §1

H3122 cells = assay: WST-8 cell viability assay, H3122; assay type: cell-based; conditions: WST-8, 3 d
Experimental: as §1

SUDHL1 cells = assay: WST-8 cell viability assay, SUDHL1; assay type: cell-based; conditions: WST-8, 3 d
Experimental: as §1

SK-MEL-28 cells [10] = assay: WST-8 cell viability assay, SK-MEL-28; assay type: cell-based
Experimental: as §2, §1

[11] = HT-29 cells, 0.1, 0.3, or 1 μM, 24 h
[12] = SK-MEL-28 cells, 0.1, 0.3, or 1 μM, 24 h

Structure (SMILES): Cc1ncsc1-c1ccc([C@H](C)NC(=O)[C@@H]2C[C@@H](O)CN2C(=O)[C@@H](NC(=O)CCCCCCCCCCNCCCONC(=O)c2ccc(F)c(F)c2Nc2ccc(I)cc2F)C(C)(C)C)cc1 [CPD-031, (2S,4R)-1-((S)-20-(tert-butyl)-1-(3,4-difluoro-2-((2-fluoro-4-iodophenyl)amino)phenyl)-1,18-dioxo-3-oxa-2,7,19-triazahenicosan-21-oyl)-4-hydroxy-N—((S)-1-(4-(4-methylthiazol-5-yl)phenyl)ethyl)pyrrolidine-2-carboxamide]
- potency at degradation of MEK1 and MEK2 and inhibition of MEK phosphorylation after pretreatment (MEK1/2 [1]): significantly impaired
- MEK1 and MEK2 protein levels, time-dependent (MEK1/2 [2]): reduced
- MEK1 and MEK2 protein levels (MEK1/2 [2]; [11]): reduced
- MEK1 and MEK2 protein levels, concentration-dependent (MEK1/2 [2]; 24 h): reduced
- MEK1 and MEK2 protein levels, time-dependent (MEK1/2 [3]): reduced
- MEK1 and MEK2 protein levels (MEK1/2 [3]; [12]): reduced
- MEK1 and MEK2 protein levels, concentration-dependent (MEK1/2 [3]; 24 h): reduced
- MEK2 kinase activity (MEK2): inhibited
- protein levels in the global proteomic study (MEK1 and MEK2 proteins): selectively degraded
- phosphorylation of MEK and ERK / pERK signaling, time-dependent (pMEK and pERK [4]): inhibited
- inhibition of MEK and ERK phosphorylation compared with CPD-034 (pMEK and pERK [4]; [12]): more potent
- phosphorylation of MEK and ERK proteins, concentration-dependent (pMEK and pERK [4]; 24 h): inhibited
- MEK1 kinase activity (MEK1): inhibited
- GI50 (HT-29 cells [5]; Homo sapiens, 72 h, MTT assay, 3 d treatment, serial dilutions): 0.13 ± 0.04 µM
- inhibition of the growth of cells compared with CPD-034 (HT-29 cells [5]; MTT 3 d, clonogenic assay 14 d at 10, 30 and 100 nM): more potent
- inhibition of the growth of cells compared with CPD-034 (SK-MEL-28 cells [6]): more potent
- potency at degradation of MEK1 and MEK2 and inhibition of MEK phosphorylation after pretreatment (MEK1/2 [7]): significantly impaired
- phosphorylation of MEK and ERK / pERK signaling, time-dependent (pMEK and pERK [8]): inhibited
- inhibition of MEK and ERK phosphorylation compared with CPD-034 (pMEK and pERK [8]; [11]): more potent
- phosphorylation of MEK and ERK proteins, concentration-dependent (pMEK and pERK [8]; 24 h): inhibited

Structure (SMILES): Cc1ncsc1-c1ccc([C@H](C)NC(=O)[C@@H]2C[C@@H](O)CN2C(=O)[C@@H](NC(=O)CCCCCCCCCCN(C)CCCONC(=O)c2ccc(F)c(F)c2Nc2ccc(I)cc2F)C(C)(C)C)cc1 [CPD-037, (2S,4R)-1-((S)-20-(tert-butyl)-1-(3,4-difluoro-2-((2-fluoro-4-iodophenyl)amino)phenyl)-7-methyl-1,18-dioxo-3-oxa-2,7,19-triazahenicosan-21-oyl)-4-hydroxy-N—((S)-1-(4-(4-methylthiazol-5-yl)phenyl)ethyl)pyrrolidine-2-carboxamide]
- MEK1 and MEK2 protein levels, time-dependent (MEK1/2 [2]): degrade
- MEK1 and MEK2 protein levels, concentration-dependent (MEK1/2 [2]; 24 h): degrade
- MEK1 and MEK2 protein levels, time-dependent (MEK1/2 [3]): degrade
- MEK1 and MEK2 protein levels, concentration-dependent (MEK1/2 [3]; 24 h): degrade
- growth of cells (HT-29 cells [9]; WST-8 3 d serial dilutions, clonogenic assay 10 d): significantly suppressed
- growth inhibition compared with AZ compound (HT-29 cells [9]; WST-8, 3 d): more potent
- phosphorylation of MEK and ERK / pERK signaling, time-dependent (pMEK and pERK [4]): inhibit
- phosphorylation of MEK and ERK proteins, concentration-dependent (pMEK and pERK [4]; 24 h): inhibit
- growth inhibition compared with AZ compound (H3122 cells): more potent
- growth inhibition compared with AZ compound (SUDHL1 cells): more potent
- growth of cells (SK-MEL-28 cells [10]; WST-8 3 d serial dilutions): significantly suppressed
- growth inhibition compared with AZ compound (SK-MEL-28 cells [10]; WST-8, 3 d): more potent
- phosphorylation of MEK and ERK / pERK signaling, time-dependent (pMEK and pERK [8]): inhibit
- phosphorylation of MEK and ERK proteins, concentration-dependent (pMEK and pERK [8]; 24 h): inhibit
